Laboratory results: patent US6558694B2, “Zinc chloride unit dose packaging, applicator, and method of use in treating cancer and other skin diseases” (priority 1999, dated 2003)

Legend:
HIV = conditions: cited from earlier work
[1] = Mixing compatibility of additives with zinc chloride fixative paste; assay type: physicochemical; conditions: for mixing with the zinc chloride fixative paste: additive in low concentration
Procedure: Podophyllin is a natural plant extract from the dried roots of either Podophyllum peltatum or P. emodi. It is an antimitotic agent used for many years in the treatment of human warts. (Fitzpatrick T B, et al. Dermatology in General Medicine, McGraw-Hill 1999, p. 2724.) Podophyllin is added at a 0.01% concentration, although a wide range of concentrations may be acceptable from 0.001% to 90% or greater, depending on the zinc chloride formulation employed.

[2] = inadvertent extravasation; far greater concentration and dosage than in the paste; tenderness, erythema, skin discoloration, swelling; cited from earlier work

| SMILES | inactivation of HIV (HIV) | mixing with the zinc chloride fixative paste [1] | paste consistency and viscosity after addition ([1]; paclitaxel in low concentration) | local skin reactions [2] |
| --- | --- | --- | --- | --- |
| [Cl-].[Cl-].[Zn+2] [zinc chloride] | inactivated |  |  |  |
| O=c1[nH]cc(F)c(=O)[nH]1 [fluorouracil] |  | completely compatible and mix fully |  |  |
| NC(N)=O [urea] |  | completely compatible and mix fully |  |  |
| CC(=O)O[C@H]1C(=O)[C@@]2(C)[C@H]([C@H](OC(=O)c3ccccc3)[C@]3(O)C[C@H](OC(=O)[C@H](O)[C@@H](NC(=O)c4ccccc4)c4ccccc4)C(C)=C1C3(C)C)[C@]1(OC(C)=O)CO[C@@H]1C[C@@H]2O [paclitaxel] |  | mixes completely and fully | remains unchanged | mild |
